# Source: patent US10722520B2, “Heterocyclic compounds and their use in preventing or treating bacterial infections” (MUTABILIS, priority 2016, dated 2020)
# Tests used:
# CMY-37 = CMY-37 (Citrobacter freundii, UniProt P05193); details: read-out: IC50 β-lactamase CMY-37
# E. coli RGN238 [1] = assay: microbe, parasite or virus in culture; assay type: cell-based; details: Escherichia coli, RGN238, read-out: MIC compounds of the invention alone
# Procedure: Log phase bacterial suspensions were adjusted to a final density of 5×10^5 cfu/mL in cation-adjusted Mueller-Hinton broth (Becton-Dickinson) and added to each well (98 μL). Microplates were incubated for 16-20 h at 35° C. in ambient air. The MIC of the compounds was defined as the lowest concentration of said compounds that prevented bacterial growth as read by visual inspection.
# KPC-2 = KPC-2 (Klebsiella pneumoniae, UniProt Q9F663)
# OXA-48 = OXA-48 (Klebsiella pneumoniae, UniProt Q6XEC0)
# CTX-M-15 = CTX-M-15 (Escherichia coli, UniProt Q9EXV5)
# TEM-1 = TEM-1 (Escherichia coli, UniProt P62593)
# E. cloacae P99 = assay: MIC of ceftazidime (CAZ) at fixed concentration of compound (synergy), broth microdilution; assay type: cell-based; details: strain P99 (E. cloacae)
# How it was run: (§1)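 Growth inhibition was scored by eye after 16-20 h at 35° C (room air), with bacteria from log phase seeded at 5×10^5 cfu/mL final in cation-adjusted Mueller-Hinton medium.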
# E. coli RGN238 [2] = assay: as above; assay type: cell-based; details: strain RGN238 (E. coli)
# How it was run: as §1
# K. pneumoniae 6299 = assay: as above; assay type: cell-based; details: strain 6299 (K. pneumoniae)
# How it was run: as §1
# E. cloacae 260508 = assay: as above; assay type: cell-based; details: strain 260508 (E. cloacae)
# How it was run: as §1
# E. coli UFR61O = assay: as above; assay type: cell-based; details: strain UFR61O (E. coli)
# How it was run: as §1
# K. pneumoniae UFR77 = assay: as above; assay type: cell-based; details: strain UFR77 (K. pneumoniae)
# How it was run: as §1
# E. coli UFR74 = assay: as above; assay type: cell-based; details: strain UFR74 (E. coli)
# How it was run: as §1
# K. oxytoca UFR21 = assay: as above; assay type: cell-based; details: strain UFR21 (K. oxytoca)
# How it was run: as §1
# K. pneumoniae UFR68 = assay: as above; assay type: cell-based; details: strain UFR68 (K. pneumoniae)
# How it was run: as §1
# E. cloacae UFR85 = assay: as above; assay type: cell-based; details: strain UFR85 (E. cloacae)
# How it was run: as §1
# K. pneumoniae UFR24 = assay: as above; assay type: cell-based; details: strain UFR24 (K. pneumoniae)
# How it was run: as §1
# K. pneumoniae 160143 = assay: as above; assay type: cell-based; details: strain 160143 (K. pneumoniae)
# How it was run: as §1
# E. coli 131119 = assay: as above; assay type: cell-based; details: strain 131119 (E. coli)
# How it was run: as §1
# E. coli UFR41 = assay: as above; assay type: cell-based; details: strain UFR41 (E. coli)
# How it was run: as §1
# E. coli UFR32 = assay: as above; assay type: cell-based; details: strain UFR32 (E. coli)
# How it was run: as §1
# E. coli UFR39 = assay: as above; assay type: cell-based; details: strain UFR39 (E. coli)
# How it was run: as §1
# K. pneumoniae BAA-1898 = assay: as above; assay type: cell-based; details: strain BAA-1898 (K. pneumoniae)
# How it was run: as §1
# E. coli 190317 = assay: as above; assay type: cell-based; details: strain 190317 (E. coli)
# How it was run: as §1
# K. pneumoniae 200047 = assay: as above; assay type: cell-based; details: strain 200047 (K. pneumoniae)
# How it was run: as §1
# E. cloacae UFR70 = assay: as above; assay type: cell-based; details: strain UFR70 (E. cloacae)
# How it was run: as §1
# E. coli UFR18 = assay: as above; assay type: cell-based; details: strain UFR18 (E. coli)
# How it was run: as §1
# E. cloacae UFR51 = assay: as above; assay type: cell-based; details: strain UFR51 (E. cloacae)
# How it was run: as §1
# P. aeruginosa CIP107051 = assay: as above; assay type: cell-based; details: strain CIP107051 (P. aeruginosa)
# How it was run: as §1
# OXA-15 = OXA-15 (Pseudomonas aeruginosa, UniProt Q51574); assay: biochemical
# [3] = MIC of ceftazidime with compound fixed at 4 μg/mL
# [4] = footnote *: MIC of ceftazidime with compound fixed at 8 μg/mL
# OXA-15, sequence (Q51574 22-275): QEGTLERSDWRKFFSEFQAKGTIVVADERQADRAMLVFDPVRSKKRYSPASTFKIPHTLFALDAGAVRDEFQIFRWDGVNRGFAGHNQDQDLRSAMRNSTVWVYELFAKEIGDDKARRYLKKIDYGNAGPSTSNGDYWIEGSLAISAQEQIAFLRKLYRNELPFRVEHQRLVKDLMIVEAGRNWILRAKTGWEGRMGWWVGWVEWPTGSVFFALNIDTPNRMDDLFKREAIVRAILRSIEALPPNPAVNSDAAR
# CMY-37, sequence (P05193 21-381 limits assumed): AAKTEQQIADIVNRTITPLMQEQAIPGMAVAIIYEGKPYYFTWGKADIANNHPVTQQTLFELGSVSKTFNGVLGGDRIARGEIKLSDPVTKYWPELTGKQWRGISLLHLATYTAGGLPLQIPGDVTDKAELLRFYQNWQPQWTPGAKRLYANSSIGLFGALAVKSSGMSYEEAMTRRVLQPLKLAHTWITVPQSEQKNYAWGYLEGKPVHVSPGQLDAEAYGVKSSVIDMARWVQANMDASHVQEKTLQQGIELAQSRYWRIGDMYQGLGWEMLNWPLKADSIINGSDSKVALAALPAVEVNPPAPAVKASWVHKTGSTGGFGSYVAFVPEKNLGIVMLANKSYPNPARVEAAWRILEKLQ
# CTX-M-15, sequence (Q9EXV5 29-291, species assumed): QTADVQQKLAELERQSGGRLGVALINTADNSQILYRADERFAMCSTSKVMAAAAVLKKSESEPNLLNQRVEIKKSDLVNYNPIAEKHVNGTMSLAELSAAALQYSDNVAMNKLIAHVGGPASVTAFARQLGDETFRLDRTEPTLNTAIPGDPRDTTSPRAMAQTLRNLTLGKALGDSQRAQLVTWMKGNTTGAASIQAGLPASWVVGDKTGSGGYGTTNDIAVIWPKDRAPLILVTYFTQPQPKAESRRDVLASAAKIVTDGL
# KPC-2, sequence (Q9F663 25-293, looked up, species assumed): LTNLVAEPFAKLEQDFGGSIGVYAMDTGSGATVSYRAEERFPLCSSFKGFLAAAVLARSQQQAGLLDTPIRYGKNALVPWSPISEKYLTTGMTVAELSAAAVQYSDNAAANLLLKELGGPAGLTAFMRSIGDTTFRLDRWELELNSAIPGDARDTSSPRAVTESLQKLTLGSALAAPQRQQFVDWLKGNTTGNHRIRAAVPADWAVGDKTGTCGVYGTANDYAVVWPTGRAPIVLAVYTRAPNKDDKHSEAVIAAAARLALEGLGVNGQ
# TEM-1, sequence (P62593 24-286 limits assumed): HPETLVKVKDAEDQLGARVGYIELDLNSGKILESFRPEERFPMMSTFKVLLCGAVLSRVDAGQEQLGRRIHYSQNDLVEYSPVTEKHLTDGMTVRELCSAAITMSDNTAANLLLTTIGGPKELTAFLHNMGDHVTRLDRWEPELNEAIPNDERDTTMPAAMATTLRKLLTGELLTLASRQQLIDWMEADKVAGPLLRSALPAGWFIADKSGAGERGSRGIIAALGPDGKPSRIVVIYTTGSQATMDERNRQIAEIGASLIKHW
# OXA-48, sequence (Q6XEC0 23-265, looked up, species assumed): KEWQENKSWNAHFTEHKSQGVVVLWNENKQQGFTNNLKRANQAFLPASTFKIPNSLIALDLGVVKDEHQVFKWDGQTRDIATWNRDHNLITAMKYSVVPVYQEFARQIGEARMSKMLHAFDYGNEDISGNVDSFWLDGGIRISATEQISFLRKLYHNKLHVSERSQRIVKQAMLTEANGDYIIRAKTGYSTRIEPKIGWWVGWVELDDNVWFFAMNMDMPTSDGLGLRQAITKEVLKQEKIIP
smiles,measurement,setting,value
"O=C1N2CC(n3ccsc3=O)=CC(C2)N1OS(=O)(=O)[O-].[Na+] (stereo not drawn) [Example 1, Sodium [7-oxo-3-(2-oxo-thiazol-3-yl)-1,6-diaza-bicyclo[3.2.1]oct-3-en-6-yl]sulfate]",IC50,CMY-37,33 nM
same,MIC,E. coli RGN238 [1],8 µg/mL
same,IC50,KPC-2,13 nM
same,IC50,OXA-48,1.9 nM
same,IC50,CTX-M-15,0.55 nM
same,IC50,TEM-1,0.25 nM
same,MIC combination of CAZ and compounds of the invention at 4 μg/mL,E. cloacae P99; [3],<0.25
same,MIC combination of CAZ and compounds of the invention at 4 μg/mL,E. coli RGN238 [2]; [3],<0.25
same,MIC combination of CAZ and compounds of the invention at 4 μg/mL,K. pneumoniae 6299; [3],≤0.25
same,MIC combination of CAZ and compounds of the invention at 4 μg/mL,E. cloacae 260508; [3],<0.25
same,MIC combination of CAZ and compounds of the invention at 4 μg/mL,E. coli UFR61O; [3],≤0.25
same,MIC combination of CAZ and compounds of the invention at 4 μg/mL,K. pneumoniae UFR77; [3],≤0.25
same,MIC combination of CAZ and compounds of the invention at 4 μg/mL,E. coli UFR74; [3],≤0.25
same,MIC combination of CAZ and compounds of the invention at 4 μg/mL,K. oxytoca UFR21; [3],0.5
same,MIC combination of CAZ and compounds of the invention at 4 μg/mL,K. pneumoniae UFR68; [3],<0.25
same,MIC combination of CAZ and compounds of the invention at 4 μg/mL,E. cloacae UFR85; [3],<0.25
same,MIC combination of CAZ and compounds of the invention at 4 μg/mL,K. pneumoniae UFR24; [3],0.5
same,MIC combination of CAZ and compounds of the invention at 4 μg/mL,K. pneumoniae 160143; [3],≤0.25
same,MIC combination of CAZ and compounds of the invention at 4 μg/mL,E. coli 131119; [3],<0.25
same,MIC combination of CAZ and compounds of the invention at 4 μg/mL,E. coli UFR41; [3],0.5
same,MIC combination of CAZ and compounds of the invention at 4 μg/mL,E. coli UFR32; [3],<0.25
same,MIC combination of CAZ and compounds of the invention at 4 μg/mL,E. coli UFR39; [3],<0.25
same,MIC combination of CAZ and compounds of the invention at 4 μg/mL,K. pneumoniae BAA-1898; [3],≤0.25
same,MIC combination of CAZ and compounds of the invention at 4 μg/mL,E. coli 190317; [3],<0.25
same,MIC combination of CAZ and compounds of the invention at 4 μg/mL,K. pneumoniae 200047; [3],≤0.25
same,MIC combination of CAZ and compounds of the invention at 4 μg/mL,E. cloacae UFR70; [3],≤0.25
same,MIC combination of CAZ and compounds of the invention at 4 μg/mL,E. coli UFR18; [3],<0.25
same,MIC combination of CAZ and compounds of the invention at 4 μg/mL,E. cloacae UFR51; [3],<0.25
same,MIC combination of CAZ and compounds of the invention at 4 μg/mL,P. aeruginosa CIP107051; [3],8
same,IC50,OXA-15,92 nM
"O=C1N2CC(n3cncn3)=CC(C2)N1OS(=O)(=O)[O-].[Na+] (stereo not drawn) [Example 5, sodium [7-oxo-3-(1,2,4-triazol-1-yl)-1,6-diazabicyclo[3.2.1]oct-3-en-6-yl]sulfate]",IC50,CMY-37,36 nM
same,MIC,E. coli RGN238 [1],2 µg/mL
same,IC50,KPC-2,3 nM
same,IC50,OXA-48,0.45 nM
same,IC50,CTX-M-15,0.66 nM
same,IC50,TEM-1,0.8 nM
same,MIC combination of CAZ and compound at 8 μg/mL,E. cloacae P99; [4],<0.25
same,MIC combination of CAZ and compound at 8 μg/mL,E. coli RGN238 [2]; [4],<0.25
same,MIC combination of CAZ and compound at 8 μg/mL,K. pneumoniae 6299; [4],<0.25
same,MIC combination of CAZ and compound at 8 μg/mL,E. cloacae 260508; [4],<0.25
same,MIC combination of CAZ and compound at 8 μg/mL,E. coli UFR61O; [4],<0.25
same,MIC combination of CAZ and compound at 8 μg/mL,K. pneumoniae UFR77; [4],<0.25
same,MIC combination of CAZ and compound at 8 μg/mL,E. coli UFR74; [4],<0.25
same,MIC combination of CAZ and compound at 8 μg/mL,K. oxytoca UFR21; [4],<0.25
same,MIC combination of CAZ and compound at 8 μg/mL,K. pneumoniae UFR68; [4],<0.25
same,MIC combination of CAZ and compound at 8 μg/mL,E. cloacae UFR85; [4],<0.25
same,MIC combination of CAZ and compound at 8 μg/mL,K. pneumoniae UFR24; [4],<0.25
same,MIC combination of CAZ and compound at 8 μg/mL,K. pneumoniae 160143; [4],<0.25
same,MIC combination of CAZ and compound at 8 μg/mL,E. coli 131119; [4],<0.25
same,MIC combination of CAZ and compound at 8 μg/mL,E. coli UFR41; [4],<0.25
same,MIC combination of CAZ and compound at 8 μg/mL,E. coli UFR32; [4],<0.25
same,MIC combination of CAZ and compound at 8 μg/mL,E. coli UFR39; [4],<0.25
same,MIC combination of CAZ and compound at 8 μg/mL,K. pneumoniae BAA-1898; [4],<0.25
same,MIC combination of CAZ and compound at 8 μg/mL,E. coli 190317; [4],<0.25
same,MIC combination of CAZ and compound at 8 μg/mL,K. pneumoniae 200047; [4],<0.25
same,MIC combination of CAZ and compound at 8 μg/mL,E. cloacae UFR70; [4],<0.25
same,MIC combination of CAZ and compound at 8 μg/mL,E. coli UFR18; [4],<0.25
same,MIC combination of CAZ and compound at 8 μg/mL,E. cloacae UFR51; [4],<0.25
same,MIC combination of CAZ and compound at 8 μg/mL,P. aeruginosa CIP107051; [4],4
same,IC50,OXA-15,27 nM
